Measured values: patent US20260232767A1, “INTERLEUKIN-23 RECEPTOR ANTAGONIST PEPTIDES FOR USE IN THE TREATMENT OF PSORIASIS” (Janssen Pharmaceutica NV, priority 2023, published 2026)

Test system: subjects with moderate-to-severe plaque psoriasis
Assay: Safety, adverse events, Example 2 through Week 56
Format: in vivo, human
From the text: The LTE safety analysis was based on randomized participants in Example who entered the present long-term extension study and received at least one dose of study intervention (including a partial dose) during the study period.

[1] = 25 mg BID, Week 16 through Week 56
[2] = 25 mg BID, LTE Safety analysis set

CC(=O)NCCCC[C@@H]1NC(=O)[C@H](Cc2c[nH]c3c(C)cccc23)NC(=O)[C@H]([C@@H](C)O)NC(=O)[C@H](CC(N)=O)NC(=O)[C@@H](NC(C)=O)C(C)(C)SSC(C)(C)[C@@H](C(=O)N[C@@H](Cc2ccc(OCCN)cc2)C(=O)N[C@@H](Cc2ccc3ccccc3c2)C(=O)NC2(C(=O)N[C@@H](CCC(=O)O)C(=O)N[C@@H](CC(N)=O)C(=O)N[C@@H](Cc3cccnc3)C(=O)N(C)CC(N)=O)CCOCC2)NC1=O [IL-23 receptor antagonist peptide, Ac-[Pen]*-N-T-[W(7-Me)]-[Lys(Ac)]-[Pen]*-Phe[4-(2-aminoethoxy)]-[2-Nal]-[THP]-E-N-[3-Pal]-Sarc-NH2 (*[Pen]-[Pen]* formdisulfidebond)]
(2.5%): Subjects with treatment-emergent AE: Endocrine disorders (%) [1] | Subjects with treatment-emergent AE: Eye disorders (%) [1] | Subjects with treatment-emergent AE: Eyelid skin dryness (%) [1] | Subjects with treatment-emergent AE: Goiter (%) [1] | Subjects with treatment-emergent AE: Insomnia (%) [1] | Subjects with treatment-emergent AE: Psychiatric disorders (%) [1] | Subjects with treatment-emergent AE: Ventricular dysfunction (%) [1]
(4.9%): General disorders and administration site conditions: % of subjects (25 mg BID, through Week 56) | Hypertension: % of subjects (25 mg BID, through Week 56)
2: General disorders and administration site conditions: number of subjects (25 mg BID, through Week 56) | Hypertension: number of subjects (25 mg BID, through Week 56)
1: Number of subjects with treatment-emergent AE: Endocrine disorders [1] | Number of subjects with treatment-emergent AE: Eye disorders [1] | Number of subjects with treatment-emergent AE: Eyelid skin dryness [1] | Number of subjects with treatment-emergent AE: Goiter [1] | Number of subjects with treatment-emergent AE: Insomnia [1] | Number of subjects with treatment-emergent AE: Psychiatric disorders [1] | Acrochordon: number of subjects (25 mg BID, through Week 56) | Asthenia: number of subjects (25 mg BID, through Week 56) | Cardiac disorders: number of subjects (25 mg BID, through Week 56) | Chills: number of subjects (25 mg BID, through Week 56) | Dermatitis contact: number of subjects (25 mg BID, through Week 56) | Diabetes mellitus: number of subjects (25 mg BID, through Week 56) | Endocrine disorders: number of subjects (25 mg BID, through Week 56) | Eye disorders: number of subjects (25 mg BID, through Week 56) | Eyelid skin dryness: number of subjects (25 mg BID, through Week 56) | Goiter: number of subjects (25 mg BID, through Week 56) | Hyperlipidemia: number of subjects (25 mg BID, through Week 56) | Influenza like illness: number of subjects (25 mg BID, through Week 56) | Insomnia: number of subjects (25 mg BID, through Week 56)
(2.4%): Acrochordon: % of subjects (25 mg BID, through Week 56) | Asthenia: % of subjects (25 mg BID, through Week 56) | Cardiac disorders: % of subjects (25 mg BID, through Week 56) | Chills: % of subjects (25 mg BID, through Week 56) | Dermatitis contact: % of subjects (25 mg BID, through Week 56) | Diabetes mellitus: % of subjects (25 mg BID, through Week 56) | Endocrine disorders: % of subjects (25 mg BID, through Week 56) | Eye disorders: % of subjects (25 mg BID, through Week 56) | Eyelid skin dryness: % of subjects (25 mg BID, through Week 56) | Goiter: % of subjects (25 mg BID, through Week 56) | Hyperlipidemia: % of subjects (25 mg BID, through Week 56) | Influenza like illness: % of subjects (25 mg BID, through Week 56) | Insomnia: % of subjects (25 mg BID, through Week 56)
0: Subjects with Bronchitis bacterial | Number of subjects with treatment-emergent AE: Cholelithiasis [1] | Number of subjects with treatment-emergent AE: Ear and labyrinth disorders [1] | Number of subjects with treatment-emergent AE: Hepatobiliary disorders [1] | Number of subjects with treatment-emergent AE: Hypertransaminasemia [1] | Number of subjects with treatment-emergent AE: Immune system disorders [1] | Number of subjects with treatment-emergent AE: Ocular cyst [1] | Number of subjects with treatment-emergent AE: Retinal vein occlusion [1] | Number of subjects with treatment-emergent AE: Seasonal allergy [1] | Number of subjects with treatment-emergent AE: Vertigo [1] | Subjects with 1 or more Serious Infections and infestations [2] | Subjects with adverse event: Alanine aminotransferase increased [2] | Subjects with adverse event: Arthralgia [2] | Subjects with adverse event: Aspartate aminotransferase increased [2] | Subjects with adverse event: Vomiting [2] | Subjects with serious adverse event: Cerebrovascular accident [2] | Subjects with serious adverse event: Coronary artery disease [2] | Subjects with serious adverse event: Diverticulitis [2] | Subjects with serious adverse event: Foot deformity [2] | Subjects with serious adverse event: Intervertebral disc protrusion [2] | Subjects with serious adverse event: Non-cardiac chest pain [2] | Subjects with serious adverse event: Uterine leiomyoma [2] | Subjects with AE leading to discontinuation: Alanine aminotransferase increased (25 mg BID, Week 16-56) | Subjects with AE leading to discontinuation: Aspartate aminotransferase increased (25 mg BID, Week 16-56) | Subjects with AE leading to discontinuation: Ear and labyrinth disorders (25 mg BID, Week 16-56) | Subjects with AE leading to discontinuation: Gamma-glutamyltransferase increased (25 mg BID, Week 16-56) | Subjects with AE leading to discontinuation: Investigations (25 mg BID, Week 16-56) | Subjects with AE leading to discontinuation: Vertigo (25 mg BID, Week 16-56) | Subjects with AE leading to discontinuation: Vomiting (25 mg BID, Week 16-56) | Subjects with COVID-19 associated AE of interest: SARS-CoV-2 test positive (25 mg BID, Week 16-56) | Subjects with treatment-emergent AE: Alanine aminotransferase increased (25 mg BID, Week 16-56) | Subjects with treatment-emergent AE: Arthralgia (25 mg BID, Week 16-56) | Subjects with treatment-emergent AE: Aspartate aminotransferase increased (25 mg BID, Week 16-56) | Subjects with treatment-emergent AE: Vomiting (25 mg BID, Week 16-56) | Subjects with treatment-emergent serious AE: Cerebrovascular accident (25 mg BID, Week 16-56) | Subjects with treatment-emergent serious AE: Coronary artery disease (25 mg BID, Week 16-56) | Subjects with treatment-emergent serious AE: Diverticulitis (25 mg BID, Week 16-56) | Subjects with treatment-emergent serious AE: Foot deformity (25 mg BID, Week 16-56) | Subjects with treatment-emergent serious AE: General disorders and administration site conditions (25 mg BID, Week 16-56) | Subjects with treatment-emergent serious AE: Infections and infestations (25 mg BID, Week 16-56) | Subjects with treatment-emergent serious AE: Intervertebral disc protrusion (25 mg BID, Week 16-56) | Subjects with treatment-emergent serious AE: Musculoskeletal and connective tissue disorders (25 mg BID, Week 16-56) | Subjects with treatment-emergent serious AE: Neoplasms benign, malignant and unspecified (incl cysts and polyps) (25 mg BID, Week 16-56) | Subjects with treatment-emergent serious AE: Nervous system disorders (25 mg BID, Week 16-56) | Subjects with treatment-emergent serious AE: Non-cardiac chest pain (25 mg BID, Week 16-56) | Subjects with treatment-emergent serious AE: Uterine leiomyoma (25 mg BID, Week 16-56) | Actinic keratosis: number of subjects (25 mg BID, through Week 56) | Alopecia: number of subjects (25 mg BID, through Week 56) | Asthma: number of subjects (25 mg BID, through Week 56) | Atrioventricular block first degree: number of subjects (25 mg BID, through Week 56) | Basal cell carcinoma: number of subjects (25 mg BID, through Week 56) | Blood and lymphatic system disorders: number of subjects (25 mg BID, through Week 56) | Bronchitis chronic: number of subjects (25 mg BID, through Week 56) | Bundle branch block right: number of subjects (25 mg BID, through Week 56) | Cholelithiasis: number of subjects (25 mg BID, through Week 56) | Chronic obstructive pulmonary disease: number of subjects (25 mg BID, through Week 56) | Coronary artery disease: number of subjects (25 mg BID, through Week 56) | Cough: number of subjects (25 mg BID, through Week 56) | Decreased appetite: number of subjects (25 mg BID, through Week 56) | Depression: number of subjects (25 mg BID, through Week 56) | Dermal cyst: number of subjects (25 mg BID, through Week 56) | Dermatitis acneiform: number of subjects (25 mg BID, through Week 56) | Diffuse alopecia: number of subjects (25 mg BID, through Week 56) | Dysuria: number of subjects (25 mg BID, through Week 56) | Ear and labyrinth disorders: number of subjects (25 mg BID, through Week 56) | Fatigue: number of subjects (25 mg BID, through Week 56) | Haemochromatosis: number of subjects (25 mg BID, through Week 56) | Hand dermatitis: number of subjects (25 mg BID, through Week 56) | Hematuria: number of subjects (25 mg BID, through Week 56) | Hepatobiliary disorders: number of subjects (25 mg BID, through Week 56) | Hypercholesterolemia: number of subjects (25 mg BID, through Week 56) | Hyperglycemia: number of subjects (25 mg BID, through Week 56) | Hypertransaminasemia: number of subjects (25 mg BID, through Week 56) | Hypertriglyceridemia: number of subjects (25 mg BID, through Week 56) | Hypoacusis: number of subjects (25 mg BID, through Week 56) | Immune system disorders: number of subjects (25 mg BID, through Week 56) | Intertrigo: number of subjects (25 mg BID, through Week 56)
